{
  "source": "patent US20250262170A1",
  "about": "“COMBINATIONS OF BETA 2-ADRENERGIC RECEPTOR AGONISTS AND BETA 3-ADRENERGIC RECEPTOR AGONISTS, AND MEDICAL USES THEREOF” (ATROGI AB, priority 2022, published 2025)",
  "data": [
    {"target": "T1, human β3-adrenergic receptor (Homo sapiens, UniProt P13945)", "T1 construct": "expressed in transfected cells", "T1 sequence (P13945 whole entry)": "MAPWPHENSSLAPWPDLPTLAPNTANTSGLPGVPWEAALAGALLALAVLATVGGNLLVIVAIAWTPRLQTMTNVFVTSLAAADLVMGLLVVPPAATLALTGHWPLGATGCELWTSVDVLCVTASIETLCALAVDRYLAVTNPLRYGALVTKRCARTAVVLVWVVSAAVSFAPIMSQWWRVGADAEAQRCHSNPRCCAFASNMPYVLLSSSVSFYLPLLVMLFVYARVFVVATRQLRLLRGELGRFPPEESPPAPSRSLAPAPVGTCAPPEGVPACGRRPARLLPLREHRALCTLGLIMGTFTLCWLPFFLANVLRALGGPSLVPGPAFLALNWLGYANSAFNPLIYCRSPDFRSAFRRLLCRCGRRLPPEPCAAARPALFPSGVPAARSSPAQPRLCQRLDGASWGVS", "experiment": "cAMP levels in CHO-K1 cells expressing the human β3-adrenergic receptor", "assay_type": "cell-based", "settings": "10 μM, 15 min", "experimental": "(§1) CHO-K1 cells stably expressing the human β3-adrenergic receptors were serum-starved overnight and stimulated with an agonist, final concentration 1×10^−5 M, for 15 min in stimulation buffer (HBSS supplemented with 1% BSA, 5 mM HEPES and 1 mM IBMX, pH 7.4) The medium was then aspirated and to end the reaction, 100 μL of 95% EtOH was added to each well of the 24-well plate and cells were kept at −20° C. overnight. The next day EtOH was allowed to evaporate and 250 μL of lysis buffer (1% BSA, 5 mM HEPES and 0.3% Tween-20, pH 7.4) was added to each well. The plate was kept at −80° C. for 30 min and thawed in room temperature. Intracellular cAMP levels were detected using an alpha screen cAMP kit (6760635D from Perkin Elmer). The activity for each compound is compared to that of isoproterenol.", "values": [
      {"compound": "CC(C)(C[C@H]1CC[C@H](NS(C)(=O)=O)CC1)NC[C@H](O)c1cccc(F)c1", "note": "[Compound 45, N-((trans)-4-(2-(((R)-2-(3-fluorophenyl)-2-hydroxy-ethyl)amino)-2-methyl-propyl)cyclohexyl)methane-sulfonamide]", "Activity (intracellular cAMP compared to that of isoproterenol)": "++ (activity of more than 75% of that of isoproterenol at 10 μM)"}
    ]},
    {"target": "T1, human β3-adrenergic receptor", "experiment": "cAMP levels in CHO-K1 cells expressing the human β3-adrenergic receptor", "assay_type": "cell-based", "settings": "CHO-K1, 0.25 h, 15 min, read-out: Activity (intracellular cAMP compared to that of isoproterenol)", "experimental": "as §1", "units": {"Emax at 10 µM": "%"}, "values": [
      {"compound": "O[C@H](c1cncc(F)c1)C12CCC(COc3ccc(OC(F)(F)F)cc3)(CC1)N2", "note": "[Compound 32, (R)-(5-fluoropyridin-3-yl)((1r,4R)-4-((4-(trifluoro-methoxy)phenoxy)methyl)-7-azabicyclo[2.2.1]heptan-1-yl)methanol]", "Emax at 10 µM": "> 75"},
      {"compound": "CC(C)(C[C@H]1CC[C@H](NC(=O)C(F)(F)F)CC1)NC[C@H](O)c1cccc(F)c1", "note": "[Compound 33, 2,2,2-trifluoro-N-((1R,4r)-4-(2-(((R)-2-(3-fluorophenyl)-2-hydroxyethyl)amino)-2-methylpropyl)cyclohexyl)-acetamide]", "Emax at 10 µM": "> 75"},
      {"compound": "CC(C)(C[C@H]1CC[C@H](NS(C)(=O)=O)CC1)NC[C@H](O)c1cccc(C#N)n1", "note": "[Compound 35, N-((trans)-4-(2-(((S)-2-(6-cyanopyridin-2-yl)-2-hydroxyethyl)amino)-2-methylpropyl)cyclohexyl)-methanesulfonamide]", "Emax at 10 µM": "> 75"},
      {"compound": "CO[C@H]1CC[C@@H](CC(C)(C)NC[C@H](O)c2ccc(F)c(N)c2F)CC1", "note": "[Compound 36, (R)-1-(3-amino-2,4-difluoro-phenyl)-2-((1-((cis)-4-methoxycyclohexyl)-2-methylpropan-2-yl)amino)-ethan-1-ol]", "Emax at 10 µM": "> 75"},
      {"compound": "CO[C@H]1CC[C@H](CC(C)(C)NC[C@H](O)c2ccc(F)c(N)c2F)CC1", "note": "[Compound 37, (R)-1-(3-amino-2,4-difluoro-phenyl)-2-((1-((trans)-4-methoxycyclohexyl)-2-methylpropan-2-yl)amino)-ethan-1-ol]", "Emax at 10 µM": "> 75"},
      {"compound": "CCOCC12CCC([C@H](O)c3cncc(F)c3)(CC1)N2", "note": "[Compound 38, (R)-(4-(ethoxymethyl)-7-azabicyclo[2.2.1]heptan-1-yl)(5-fluoropyridin-3-yl) methanol]", "Emax at 10 µM": "50 to 75"},
      {"compound": "CO[C@H]1CC[C@H](CC[C@@H]2CC[C@H]([C@H](O)c3cccc(F)c3)N2)CC1", "note": "[Compound 39, (R)-(3-fluorophenyl)((2R,5R)-5-(2-((tranbs)-4-methoxy-cyclohexyl)ethyl)pyrrolidin-2-yl)methanol]", "Emax at 10 µM": "> 75"},
      {"compound": "CC(C)(C[C@H]1CC[C@H](C#N)CC1)NC[C@H](O)c1cccc(F)c1", "note": "[Compound 40, (trans)-4-(2-(((R)-2-(3-fluorophenyl)-2-hydroxy-ethyl)amino)-2-methyl-propyl)cyclohexane-1-carbonitrile]", "Emax at 10 µM": "50 to 75"},
      {"compound": "CCOC(=O)CO[C@H]1CC[C@H](C(C)(C)NC[C@H](O)c2cccc(F)c2)CC1", "note": "[Compound 41, ethyl 2-(((1R,4r)-4-(2-(((R)-2-(3-fluorophenyl)-2-hydroxyethyl)amino)propan-2-yl)cyclohexyl)oxy)acetate]", "Emax at 10 µM": "> 75"},
      {"compound": "O[C@H](c1cccc(F)c1)[C@H]1CC[C@@H](Cc2ccc(Cl)cc2)N1", "note": "[Compound 42, (R)-((2R,5S)-5-(4-chloro-benzyl)pyrrolidin-2-yl)(3-fluorophenyl)methanol]", "Emax at 10 µM": "> 75"},
      {"compound": "O[C@H](c1cccc(F)c1)C12CCC(Cc3ccccc3)(CC1)N2", "note": "[Compound 43, (R)-(4-benzyl-7-azabicyclo-[2.2.1]heptan-1-yl)(3-fluoro-phenyl)methanol]", "Emax at 10 µM": "50 to 75"},
      {"compound": "CC(C)(NC[C@H](O)c1cccc(F)c1)[C@H]1CC[C@H](NC(=O)c2ccccc2)CC1", "note": "[Compound 44, N-((trans)-4-(2-(((R)-2-(3-fluorophenyl)-2-hydroxy-ethyl)amino)propan-2-yl)-cyclohexyl)benzamide]", "Emax at 10 µM": "> 75"},
      {"compound": "CC(C)(C[C@H]1CC[C@H](NS(C)(=O)=O)CC1)NC[C@H](O)c1cncc(F)c1", "note": "[Compound 46, N-((trans)-4-(2-(((R)-2-(5-fluoropyridin-3-yl)-2-hydroxyethyl)amino)-2-methylpropyl)cyclohexyl) methanesulfonamide]", "Emax at 10 µM": "> 75"},
      {"compound": "COC(=O)[C@H]1CC[C@H](CCC(C)(C)NC[C@H](O)c2cncc(F)c2)CC1", "note": "[Compound 47, methyl (trans)-4-(3-(((R)-2-(5-fluoropyridin-3-yl)-2-hydroxyethyl)amino)-3-methylbutyl)cyclohexane-1-carboxylate]", "Emax at 10 µM": "50 to 75"},
      {"compound": "CO[C@H]1CC[C@H](C[C@H]2CC[C@H]([C@H](O)c3ccccc3F)N2)CC1", "note": "[Compound 48, (R)-(2-fluorophenyl)((2R,5R)-5-(((trans)-4-methoxycyclo-hexyl)methyl)pyrrolidin-2-yl)-methanol]", "Emax at 10 µM": "50 to 75"},
      {"compound": "CO[C@H]1CC[C@H](C[C@@H]2CC[C@H]([C@H](O)c3ccccc3F)N2)CC1", "note": "[Compound 49, (R)-(2-fluorophenyl)((2R,5S)-5-(((trans)-4-methoxycyclo-hexyl)methyl)pyrrolidin-2-yl)-methanol]", "Emax at 10 µM": "50 to 75"},
      {"compound": "CC(C)(CC[C@H]1CC[C@@H](O)CC1)NC[C@H](O)c1ccccc1F", "note": "[Compound 50, (cis)-4-(3-(((R)-2-(2-fluoro-phenyl)-2-hydroxyethyl)-amino)-3-methylbutyl)-cyclohexan-1-ol]", "Emax at 10 µM": "50 to 75"},
      {"compound": "CC(C)(CC[C@H]1CC[C@H](O)CC1)NC[C@H](O)c1ccccc1F", "note": "[Compound 51, (trans)-4-(3-(((R)-2-(2-fluorophenyl)-2-hydroxy-ethyl)amino)-3-methylbutyl)-cyclohexan-1-ol]", "Emax at 10 µM": "> 75"},
      {"compound": "CC(C)(C[C@H]1CC[C@H](O)CC1)NC[C@H](O)c1cccc(F)c1", "note": "[Compound 52, (trans)-4-(2-(((R)-2-(3-fluorophenyl)-2-hydroxy-ethyl)amino)-2-methyl-propyl)cyclohexan-1-ol]", "Emax at 10 µM": "> 75"},
      {"compound": "CO[C@H]1CC[C@@H](CC(C)(C)NC[C@H](O)c2cccc(F)c2)CC1", "note": "[Compound 53, (R)-1-(3-fluorophenyl)-2-((1-((cis)-4-methoxycyclohexyl)-2-methylpropan-2-yl)-amino)ethan-1-ol]", "Emax at 10 µM": "50 to 75"},
      {"compound": "CO[C@H]1CC[C@H](C(C)(C)NC[C@H](O)c2cccc(F)c2)CC1", "note": "[Compound 54, (R)-1-(3-fluorophenyl)-2-((2-((trans)-4-methoxycyclo-hexyl)propan-2-yl)amino)-ethan-1-ol]", "Emax at 10 µM": "50 to 75"},
      {"compound": "CC12CC(C1)[C@H]([C@H](O)c1cccc(F)c1)N2", "note": "[Compound 55, (R)-(3-fluorophenyl)((R)-1-methyl-2-azabicyclo[2.1.1]-hexan-3-yl)methanol]", "Emax at 10 µM": "50 to 75"},
      {"compound": "O[C@H](c1cccc(F)c1)[C@H]1CCC2(CCCC2)N1", "note": "[Compound 56, (R)-(3-fluorophenyl)((R)-1-azaspiro[4.4]nonan-2-yl)-methanol]", "Emax at 10 µM": "> 75"},
      {"compound": "CC(C)(C)[C@H]1CC[C@H]([C@H](O)c2cccc(F)c2)N1", "note": "[Compound 57, (R)-((2R,5R)-5-(tert-butyl)-pyrrolidin-2-yl)(3-fluoro-phenyl)methanol]", "Emax at 10 µM": "50 to 75"},
      {"compound": "CC1(C)CC[C@H]([C@H](O)c2cccc(Cl)c2)N1", "note": "[Compound 58, (R)-(3-chlorophenyl)((R)-5,5-dimethylpyrrolidin-2-yl)-methanol]", "Emax at 10 µM": "50 to 75"},
      {"compound": "CC(C)(C)NC[C@H](O)c1ccc(F)c(N)c1F", "note": "[Compound 59, (R)-1-(3-amino-2,4-difluoro-phenyl)-2-(tert-butylamino)-ethan-1-ol]", "Emax at 10 µM": "> 75"},
      {"compound": "CC(C)(C)NCC(O)c1ccncc1O", "note": "(centres unmarked) [Compound 60, 4-(2-(tert-butylamino)-1-hydroxyethyl)pyridin-3-ol]", "Emax at 10 µM": "> 75"},
      {"compound": "CC(C)(C)NC[C@H](O)c1cccc(N)c1F", "note": "[Compound 61, (R)-1-(3-amino-2-fluoro-phenyl)-2-(tert-butylamino)-ethan-1-o]", "Emax at 10 µM": "> 75"},
      {"compound": "CC1(NC[C@H](O)c2cccc(O)c2)CCC1", "note": "[Compound 62, (R)-3-(1-hydroxy-2-((1-methylcyclobutyl)amino)-ethyl)phenol]", "Emax at 10 µM": "> 75"},
      {"compound": "CC1(NC[C@H](O)c2cccc(F)c2)CC1", "note": "[Compound 63, (R)-1-(3-fluorophenyl)-2-((1-methylcyclopropyl)amino)-ethan-1-ol]", "Emax at 10 µM": "50 to 75"},
      {"compound": "CCCCNC[C@H](O)c1ccccc1F", "note": "[Compound 64, (R)-2-(butylamino)-1-(2-fluorophenyl)ethan-1-ol]", "Emax at 10 µM": "> 75"},
      {"compound": "CC(C)(C)NC[C@H](O)c1cccc(F)c1F", "note": "[Compound 65, (R)-2-(tert-butylamino)-1-(2,3-difluorophenyl)ethan-1-ol]", "Emax at 10 µM": "> 75"},
      {"compound": "CCC[C@@H](C)NC[C@H](O)c1cccc(F)c1", "note": "[Compound 66, (R)-1-(3-fluorophenyl)-2-(((R)-pentan-2-yl)amino)-ethan-1-ol]", "Emax at 10 µM": "> 75"},
      {"compound": "CCCCNCC(O)c1ccc(F)c(N)c1F", "note": "(centres unmarked) [Compound 67, 1-(3-amino-2,4-difluoro-phenyl)-2-(butylamino)ethan-1-ol]", "Emax at 10 µM": "50 to 75"},
      {"compound": "CCC[C@H](C)NC[C@H](O)c1cccc(O)c1", "note": "[Compound 68, 3-((R)-1-hydroxy-2-(((S)-pentan-2-yl)amino)ethyl)-phenol]", "Emax at 10 µM": "> 75"},
      {"compound": "CCC[C@@H](C)NC[C@H](O)c1cccc(O)c1", "note": "[Compound 69, 3-((R)-1-hydroxy-2-(((R)-pentan-2-yl)amino)ethyl)-phenol]", "Emax at 10 µM": "> 75"},
      {"compound": "CCCCNC[C@H](O)c1ccc(O)cc1", "note": "[Compound 70, (R)-4-(2-(butylamino)-1-hydroxyethyl)phenol]", "Emax at 10 µM": "50 to 75"}
    ]}
  ]
}
